# Test results: ChEMBL document CHEMBL5385866, “Switch type I to type II TRK inhibitors for combating clinical resistance induced by xDFG mutation for cancer therapy” (Eur J Med Chem, 2023)
# Columns and labels:
# [1] = biological target: High affinity nerve growth factor receptor (Homo sapiens, UniProt P04629); experiment: Inhibition of TRKA (unknown origin) using […] peptide as substrate incubated for 1 hr in presence of ATP by FRET based Z'-lyte assay
# [2] = biological target: NT-3 growth factor receptor (Homo sapiens, UniProt Q16288); experiment: Inhibition of TRKC (unknown origin) using […] peptide as substrate incubated for 1 hr in presence of ATP by FRET based Z'-lyte assay
# [3] = biological target: BDNF/NT-3 growth factors receptor (Homo sapiens, UniProt Q16620); experiment: Inhibition of TRKB (unknown origin) using […] peptide as substrate incubated for 1 hr in presence of ATP by FRET based Z'-lyte assay
# [4] = biological target: High affinity nerve growth factor receptor (Homo sapiens, UniProt P04629, G667C); experiment: Inhibition of TRKA G667C mutant (unknown origin) using […] peptide as substrate incubated for 1 hr in presence of ATP by FRET based Z'-lyte assay
# BaF3 [5] = experiment: cells; conditions: Mus musculus, BaF3, 72 h
# Description: Antiproliferative activity against mouse BaF3 cells harbouring CD74-TRKA assessed as inhibition of cell growth incubated for 72 hrs by CCK8 assay
# BaF3 [6] = experiment: cells; conditions: Mus musculus, BaF3, 72 h; remark: listed apart in the source
# Description: Antiproliferative activity against mouse BaF3 cells harbouring ETV6-TRKB assessed as inhibition of cell growth incubated for 72 hrs by CCK8 assay
# BaF3 [7] = experiment: cells; conditions: Mus musculus, BaF3, 72 h; remark: listed apart in the source
# Description: Antiproliferative activity against mouse BaF3 cells harbouring ETV6-TRKC assessed as inhibition of cell growth incubated for 72 hrs by CCK8 assay
# BaF3 [8] = experiment: cells; conditions: Mus musculus, BaF3, 72 h; remark: listed apart in the source
# BaF3 [9] = experiment: cells; conditions: Mus musculus, BaF3, 72 h; remark: listed apart in the source
# Description: Antiproliferative activity against mouse BaF3 cells assessed as inhibition of cell growth incubated for 72 hrs by CCK8 assay
# BaF3 [10] = experiment: cells; conditions: Mus musculus, BaF3, 72 h; remark: listed apart in the source
# Description: Antiproliferative activity against mouse BaF3 cells harbouring CD74-TRKA G623R mutant assessed as inhibition of cell growth incubated for 72 hrs by CCK8 assay
# BaF3 [11] = experiment: cells; conditions: Mus musculus, BaF3, 72 h; remark: listed apart in the source
# Description: Antiproliferative activity against mouse BaF3 cells harbouring CD74-TRKA G595R mutant assessed as inhibition of cell growth incubated for 72 hrs by CCK8 assay
# BaF3 [12] = experiment: Induction of apoptosis in mouse BaF3 cells harboring CD74-TRKA G667C mutant assessed as viable cells at 50 nM incubated 48 hrs by Annexin V-FITC/7-AAD staining based flow cytometric analysis (reference value: 89.60%); type: functional; conditions: read-out: Activity
# BaF3 [13] = experiment: Induction of apoptosis in mouse BaF3 cells harboring CD74-TRKA G667C mutant assessed as viable cells at 10 nM incubated 48 hrs by Annexin V-FITC/7-AAD staining based flow cytometric analysis (reference value: 89.60%); type: functional; conditions: read-out: Activity
# BaF3 [14] = experiment: Induction of apoptosis in mouse BaF3 cells harboring CD74-TRKA G667C mutant assessed as viable cells at 2 nM incubated 48 hrs by Annexin V-FITC/7-AAD staining based flow cytometric analysis (reference value: 89.60%); type: functional; conditions: read-out: Activity
# BaF3 [15] = experiment: Induction of apoptosis in mouse BaF3 cells harboring CD74-TRKA G667C mutant assessed as viable cells at 0.4 nM incubated 48 hrs by Annexin V-FITC/7-AAD staining based flow cytometric analysis (reference value: 89.60%); type: functional; conditions: read-out: Activity
# BaF3 [16] = experiment: Induction of apoptosis in mouse BaF3 cells harboring CD74-TRKA assessed as viable cells at 500 nM incubated 48 hrs by Annexin V-FITC/7-AAD staining based flow cytometric analysis (reference value: 89.30%); type: functional; conditions: read-out: Activity
# BaF3 [17] = experiment: Induction of apoptosis in mouse BaF3 cells harboring CD74-TRKA assessed as viable cells at 100 nM incubated 48 hrs by Annexin V-FITC/7-AAD staining based flow cytometric analysis (reference value: 89.30%); type: functional; conditions: read-out: Activity
# BaF3 [18] = experiment: Induction of apoptosis in mouse BaF3 cells harboring CD74-TRKA assessed as viable cells at 20 nM incubated 48 hrs by Annexin V-FITC/7-AAD staining based flow cytometric analysis (reference value: 89.30%); type: functional; conditions: read-out: Activity
# BaF3 [19] = experiment: Induction of apoptosis in mouse BaF3 cells harboring CD74-TRKA assessed as viable cells at 4 nM incubated 48 hrs by Annexin V-FITC/7-AAD staining based flow cytometric analysis (reference value: 89.30%); type: functional; conditions: read-out: Activity
# [20] = biological target: Proto-oncogene tyrosine-protein kinase receptor Ret (Homo sapiens, UniProt P07949); experiment: Inhibition of RET (unknown origin)
# [21] = biological target: Vascular endothelial growth factor receptor 2 (Homo sapiens, UniProt P35968); experiment: Inhibition of VEGFR2 (unknown origin)
# [22] = biological target: T1, Receptor-type tyrosine-protein kinase FLT3 (Homo sapiens, UniProt P36888); experiment: Inhibition of FLT3 (unknown origin)
# T1 sequence (P36888 whole entry): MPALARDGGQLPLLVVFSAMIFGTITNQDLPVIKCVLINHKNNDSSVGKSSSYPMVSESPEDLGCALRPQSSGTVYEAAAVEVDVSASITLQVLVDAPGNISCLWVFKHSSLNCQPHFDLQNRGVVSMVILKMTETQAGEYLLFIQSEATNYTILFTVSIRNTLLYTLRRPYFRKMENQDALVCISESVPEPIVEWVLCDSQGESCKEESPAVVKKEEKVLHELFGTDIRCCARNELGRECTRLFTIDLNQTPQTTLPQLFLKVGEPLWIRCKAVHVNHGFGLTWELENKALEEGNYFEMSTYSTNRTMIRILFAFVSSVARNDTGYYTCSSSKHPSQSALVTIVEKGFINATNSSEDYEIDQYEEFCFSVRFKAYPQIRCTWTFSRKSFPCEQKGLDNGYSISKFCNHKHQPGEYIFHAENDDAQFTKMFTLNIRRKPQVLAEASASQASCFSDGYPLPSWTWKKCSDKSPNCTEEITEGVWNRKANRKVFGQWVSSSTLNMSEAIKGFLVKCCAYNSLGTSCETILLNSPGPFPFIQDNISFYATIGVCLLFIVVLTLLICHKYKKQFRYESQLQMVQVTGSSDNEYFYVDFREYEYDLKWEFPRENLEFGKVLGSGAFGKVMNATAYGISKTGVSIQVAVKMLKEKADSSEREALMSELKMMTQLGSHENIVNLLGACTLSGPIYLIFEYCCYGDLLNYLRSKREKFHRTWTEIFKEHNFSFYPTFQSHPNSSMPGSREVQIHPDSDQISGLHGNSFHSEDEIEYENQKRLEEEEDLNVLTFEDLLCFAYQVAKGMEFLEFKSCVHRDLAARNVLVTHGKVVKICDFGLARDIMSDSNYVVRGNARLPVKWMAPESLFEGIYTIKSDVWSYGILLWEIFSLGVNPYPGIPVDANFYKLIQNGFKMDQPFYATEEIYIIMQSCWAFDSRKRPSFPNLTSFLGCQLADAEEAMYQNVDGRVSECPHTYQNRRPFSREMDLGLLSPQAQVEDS
# Chain of NT-3 growth factor receptor (Q16288 whole entry): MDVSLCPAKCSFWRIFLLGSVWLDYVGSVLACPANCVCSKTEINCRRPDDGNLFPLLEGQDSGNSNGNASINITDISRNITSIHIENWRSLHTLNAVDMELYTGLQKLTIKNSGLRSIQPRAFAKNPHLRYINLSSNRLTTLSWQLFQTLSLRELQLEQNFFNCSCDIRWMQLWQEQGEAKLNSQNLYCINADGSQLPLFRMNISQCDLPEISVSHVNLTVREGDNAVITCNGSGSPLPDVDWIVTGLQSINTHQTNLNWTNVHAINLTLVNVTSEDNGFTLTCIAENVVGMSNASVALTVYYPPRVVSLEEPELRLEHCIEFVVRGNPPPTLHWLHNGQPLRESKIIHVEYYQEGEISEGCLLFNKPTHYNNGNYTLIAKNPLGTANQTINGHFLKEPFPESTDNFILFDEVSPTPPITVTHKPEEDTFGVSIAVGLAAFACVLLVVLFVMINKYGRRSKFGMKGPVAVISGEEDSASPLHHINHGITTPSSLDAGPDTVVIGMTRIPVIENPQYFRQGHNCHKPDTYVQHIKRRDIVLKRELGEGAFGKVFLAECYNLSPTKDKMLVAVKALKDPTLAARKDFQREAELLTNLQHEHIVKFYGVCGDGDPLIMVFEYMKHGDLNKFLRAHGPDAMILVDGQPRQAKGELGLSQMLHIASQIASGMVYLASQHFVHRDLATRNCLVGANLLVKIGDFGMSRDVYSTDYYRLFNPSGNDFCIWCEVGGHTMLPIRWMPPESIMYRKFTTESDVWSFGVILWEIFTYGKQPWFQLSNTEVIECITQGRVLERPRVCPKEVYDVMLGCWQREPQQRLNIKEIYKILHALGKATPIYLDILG
# Chain of BDNF/NT-3 growth factors receptor (Q16620 whole entry): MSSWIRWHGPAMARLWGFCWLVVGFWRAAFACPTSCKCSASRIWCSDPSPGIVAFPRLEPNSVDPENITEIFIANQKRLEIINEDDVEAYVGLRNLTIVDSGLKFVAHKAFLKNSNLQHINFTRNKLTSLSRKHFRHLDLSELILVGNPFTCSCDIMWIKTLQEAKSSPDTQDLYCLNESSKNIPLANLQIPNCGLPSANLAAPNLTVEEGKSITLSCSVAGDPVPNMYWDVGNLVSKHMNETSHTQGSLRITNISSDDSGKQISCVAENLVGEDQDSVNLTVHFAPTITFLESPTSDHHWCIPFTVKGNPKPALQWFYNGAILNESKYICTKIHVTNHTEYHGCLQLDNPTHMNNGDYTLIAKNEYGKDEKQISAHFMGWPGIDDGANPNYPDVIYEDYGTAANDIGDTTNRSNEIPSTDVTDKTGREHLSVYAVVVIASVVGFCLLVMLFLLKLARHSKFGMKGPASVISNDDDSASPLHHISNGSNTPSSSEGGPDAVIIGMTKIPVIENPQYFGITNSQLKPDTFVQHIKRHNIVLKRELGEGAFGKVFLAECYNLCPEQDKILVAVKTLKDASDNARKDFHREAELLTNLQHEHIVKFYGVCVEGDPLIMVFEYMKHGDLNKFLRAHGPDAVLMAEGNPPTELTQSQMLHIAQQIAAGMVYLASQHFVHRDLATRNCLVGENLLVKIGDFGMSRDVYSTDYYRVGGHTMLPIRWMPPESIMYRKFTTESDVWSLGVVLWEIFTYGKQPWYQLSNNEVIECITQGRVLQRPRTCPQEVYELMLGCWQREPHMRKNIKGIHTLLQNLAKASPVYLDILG
# Chain of High affinity nerve growth factor receptor (Homo sapiens, UniProt P04629, G667C) (P04629 33-796 G667C limits assumed): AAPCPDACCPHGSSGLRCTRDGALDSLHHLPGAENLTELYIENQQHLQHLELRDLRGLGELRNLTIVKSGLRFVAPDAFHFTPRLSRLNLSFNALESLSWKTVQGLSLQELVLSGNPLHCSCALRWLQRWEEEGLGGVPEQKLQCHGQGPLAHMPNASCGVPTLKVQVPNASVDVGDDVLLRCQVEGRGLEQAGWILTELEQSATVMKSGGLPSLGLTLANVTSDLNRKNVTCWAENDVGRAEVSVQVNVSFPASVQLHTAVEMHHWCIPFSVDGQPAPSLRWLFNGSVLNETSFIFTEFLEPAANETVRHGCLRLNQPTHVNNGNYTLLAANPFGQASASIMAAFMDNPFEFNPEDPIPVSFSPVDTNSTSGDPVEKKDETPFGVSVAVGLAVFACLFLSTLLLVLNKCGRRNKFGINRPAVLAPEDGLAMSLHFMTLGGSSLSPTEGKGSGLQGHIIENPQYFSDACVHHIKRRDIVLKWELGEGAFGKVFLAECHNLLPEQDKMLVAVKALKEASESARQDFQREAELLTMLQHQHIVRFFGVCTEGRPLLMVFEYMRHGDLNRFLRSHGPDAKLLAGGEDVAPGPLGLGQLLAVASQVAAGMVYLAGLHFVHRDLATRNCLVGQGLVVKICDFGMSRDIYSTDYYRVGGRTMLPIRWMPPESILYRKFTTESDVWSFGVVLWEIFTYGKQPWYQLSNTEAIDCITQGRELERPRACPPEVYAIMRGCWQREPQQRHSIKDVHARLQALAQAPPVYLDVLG
# Chain of High affinity nerve growth factor receptor (Homo sapiens, UniProt P04629) (P04629 whole entry): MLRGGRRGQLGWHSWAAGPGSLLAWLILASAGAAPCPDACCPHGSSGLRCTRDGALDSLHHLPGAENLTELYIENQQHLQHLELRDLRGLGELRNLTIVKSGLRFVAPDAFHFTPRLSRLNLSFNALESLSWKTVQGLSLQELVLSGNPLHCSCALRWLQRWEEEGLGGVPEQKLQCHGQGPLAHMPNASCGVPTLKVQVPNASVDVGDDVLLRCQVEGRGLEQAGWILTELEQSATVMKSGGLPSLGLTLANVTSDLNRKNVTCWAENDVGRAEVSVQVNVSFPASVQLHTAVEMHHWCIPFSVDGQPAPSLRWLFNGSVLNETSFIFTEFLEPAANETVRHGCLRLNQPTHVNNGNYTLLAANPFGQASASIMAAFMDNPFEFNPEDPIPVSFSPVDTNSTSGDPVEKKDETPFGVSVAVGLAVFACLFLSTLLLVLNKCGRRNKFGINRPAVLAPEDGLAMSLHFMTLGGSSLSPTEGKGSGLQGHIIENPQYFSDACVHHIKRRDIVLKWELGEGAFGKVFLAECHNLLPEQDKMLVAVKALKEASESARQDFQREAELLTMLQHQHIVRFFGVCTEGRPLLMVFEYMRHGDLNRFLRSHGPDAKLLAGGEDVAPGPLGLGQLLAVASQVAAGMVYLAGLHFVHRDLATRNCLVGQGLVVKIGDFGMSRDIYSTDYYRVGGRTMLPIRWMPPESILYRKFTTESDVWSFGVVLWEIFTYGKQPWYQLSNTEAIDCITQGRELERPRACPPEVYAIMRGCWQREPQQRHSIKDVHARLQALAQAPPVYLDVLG
# Chain of Proto-oncogene tyrosine-protein kinase receptor Ret (P07949 whole entry): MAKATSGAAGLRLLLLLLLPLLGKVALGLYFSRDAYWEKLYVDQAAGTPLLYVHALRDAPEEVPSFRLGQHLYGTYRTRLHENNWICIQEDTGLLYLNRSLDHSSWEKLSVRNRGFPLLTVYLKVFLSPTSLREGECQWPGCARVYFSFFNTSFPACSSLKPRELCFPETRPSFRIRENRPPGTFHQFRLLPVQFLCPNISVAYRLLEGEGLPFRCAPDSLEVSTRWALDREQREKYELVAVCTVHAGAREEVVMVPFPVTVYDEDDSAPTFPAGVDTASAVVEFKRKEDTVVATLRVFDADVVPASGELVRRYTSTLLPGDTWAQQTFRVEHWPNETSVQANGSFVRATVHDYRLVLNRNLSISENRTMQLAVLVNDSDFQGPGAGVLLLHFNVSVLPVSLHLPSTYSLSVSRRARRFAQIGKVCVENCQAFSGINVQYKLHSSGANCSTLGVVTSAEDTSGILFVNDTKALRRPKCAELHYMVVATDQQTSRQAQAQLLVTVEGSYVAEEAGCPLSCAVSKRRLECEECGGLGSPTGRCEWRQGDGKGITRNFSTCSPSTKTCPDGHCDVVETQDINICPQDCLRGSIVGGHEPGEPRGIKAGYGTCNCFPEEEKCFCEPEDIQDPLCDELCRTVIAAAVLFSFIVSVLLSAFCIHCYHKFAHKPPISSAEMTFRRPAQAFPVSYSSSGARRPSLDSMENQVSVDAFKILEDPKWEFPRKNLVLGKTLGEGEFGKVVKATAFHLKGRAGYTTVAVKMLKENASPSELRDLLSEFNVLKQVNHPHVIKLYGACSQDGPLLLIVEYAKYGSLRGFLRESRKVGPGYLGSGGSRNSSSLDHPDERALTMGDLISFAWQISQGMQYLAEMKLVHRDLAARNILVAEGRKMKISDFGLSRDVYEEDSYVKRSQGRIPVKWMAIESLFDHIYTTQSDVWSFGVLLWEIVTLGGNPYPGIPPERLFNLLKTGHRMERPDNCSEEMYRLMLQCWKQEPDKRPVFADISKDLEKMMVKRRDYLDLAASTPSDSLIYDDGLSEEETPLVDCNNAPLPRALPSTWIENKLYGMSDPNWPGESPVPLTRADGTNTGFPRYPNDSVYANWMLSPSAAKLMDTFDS
Compound,IC50 [1] [nM],IC50 [2] [nM],IC50 [3] [nM],IC50 [4] [nM],IC50 (BaF3 [5]) [nM],IC50 (BaF3 [6]) [nM],IC50 (BaF3 [7]) [nM],IC50 (BaF3 [8]) [nM],other results
CN1CCN(Cc2cc(NC(=O)[C@H]3CCN(c4ccc5ncc(-c6ccccn6)n5n4)C3)cc(C(F)(F)F)c2)CC1,35.2,40.2,50.8,98.1,261,215,141,49.3,–
Cc1conc1NC(=O)N[C@@H]1CCN(c2ccc3ncc(-c4ccccn4)n3n2)C1,68.7,36.8,–,241,–,–,–,–,–
CN1CCN(Cc2ccc(NC(=O)[C@@H]3CCN(c4ccc5ncc(-c6cnn(CCO)c6)n5n4)C3)cc2C(F)(F)F)CC1,8.7,–,21.6,52.5,–,–,–,–,–
C[C@@H]1CCc2ncc(F)cc2[C@H]2CCCN2c2ccn3ncc(c3n2)C(=O)N1 [SELITRECTINIB],–,–,–,–,1.7,5.2,1.2,–,–
CN1CCN(Cc2ccc(NC(=O)[C@@H]3CCN(c4ccc5nccn5n4)C3)cc2C(F)(F)F)CC1,245,–,> 1000,938,–,–,–,–,–
CN1CCN(Cc2cc(NC(=O)[C@@H]3CCN(c4ccc5ncc(-c6ccccn6)n5n4)C3)cc(C(F)(F)F)c2)CC1,5.8,8.1,5.1,16.5,61.5,51.8,26.4,9.3,–
Cc1cn(-c2cc(NC(=O)[C@@H]3CCN(c4ccc5ncc(-c6ccccn6)n5n4)C3)cc(C(F)(F)F)c2)cn1,13.1,10.1,5.9,25.2,29.1,25.3,15.8,1.8,–
O=C(Nc1cnn2ccc(N3CCC[C@@H]3c3cc(F)ccc3F)nc12)N1CC[C@H](O)C1 [LAROTRECTINIB],–,–,–,–,9.3,29.7,15.4,284,IC50 (BaF3 [9]): > 2000 nM; IC50 (BaF3 [10]): > 1000 nM; IC50 (BaF3 [11]): > 1000 nM
O=C(Nc1ccc(Cl)c(C(F)(F)F)c1)N[C@@H]1CCN(c2ccc3ncc(-c4ccccn4)n3n2)C1,45.7,17,81.6,15.1,695,508,225,4.4,–
CN1CCN(Cc2ccc(NC(=O)[C@@H]3CCN(c4ccc5ncc(-c6cccnc6)n5n4)C3)cc2C(F)(F)F)CC1,–,8,11.1,–,–,–,–,–,–
CN1CCN(Cc2ccc(NC(=O)[C@@H]3CCN(c4ccc5ncc(-c6cnn(C7CCOCC7)c6)n5n4)C3)cc2C(F)(F)F)CC1,13.2,–,26.8,35.5,–,–,–,–,–
CN1CCN(Cc2ccc(NC(=O)[C@@H]3CCN(c4ccc5ncc(-c6ccccn6)n5n4)C3)cc2C(F)(F)F)CC1,3.3,4.3,–,9.4,–,–,–,–,viability at 0.05 µM (BaF3 [12]): 43%; viability at 0.01 µM (BaF3 [13]): 87.6%; viability at 0.002 µM (BaF3 [14]): 89.8%; viability at 0.0004 µM (BaF3 [15]): 89.1%; viability at 0.5 µM (BaF3 [16]): 60.8%; viability at 0.1 µM (BaF3 [17]): 78.1%; viability at 0.02 µM (BaF3 [18]): 87.8%; viability at 0.004 µM (BaF3 [19]): 59.9%; IC50 [20]: 9.9 nM; IC50 [21]: 71.1 nM; IC50 [22]: 1.3 nM
CN1CCN(Cc2ccc(NC(=O)[C@@H]3CCN(c4ccc5ncc(-c6cn[nH]c6)n5n4)C3)cc2C(F)(F)F)CC1,5.8,7.8,13.8,33.8,296,522,195,27.3,–
CN1CCN(Cc2ccc(NC(=O)[C@@H]3CCN(c4ccc5ncc(-c6ccc(N)nc6)n5n4)C3)cc2C(F)(F)F)CC1,6,–,9.6,16.7,–,–,–,–,–
